From the NIST ThermoML archive (doi:10.1016/j.tca.2018.07.016)
“And” between values parts separate entries of the source, which are not always exact repeats. Identical values can stand only once.

Conditions: Liquid, Transpiration method

C1CCCCNCCC1 [octamethylenimine]
Conditions | vapor or sublimation pressure [kPa]
274.6 K | 0.01266
278.3 K | 0.01754
283.3 K | 0.02575
288.3 K | 0.03757
293.2 K | 0.05489
298.1 K | 0.07468
304.1 K | 0.1162
309.1 K | 0.1671
313.3 K | 0.2073
318.1 K | 0.2813
323.4 K | 0.3868

C1CCCNCC1 [azacycloheptane]
Conditions | vapor or sublimation pressure [kPa]
275.3 K | 0.2584
278.3 K | 0.3225
281 K | 0.3957
284.2 K | 0.4858
287.3 K | 0.604
290.2 K | 0.7427
293.2 K | 0.8989
296.2 K | 1.051
302.2 K | 1.525
305.2 K | 1.824
308.1 K | 2.177
311.2 K | 2.409
314.2 K | 3.025
317.2 K | 3.485
321.2 K | 4.037

C1CCCNCCC1 [heptamethyleneimine]
Conditions | vapor or sublimation pressure
276.1 K | 0.08722 kPa
279.6 K | 0.1144 kPa
281.3 K | 0.1316 kPa
285.2 K | 0.1719 kPa
288.3 K | 0.22 kPa
292.1 K | 0.277 kPa
292.3 K | 0.2658 kPa
295.2 K | 0.3338 kPa
299 K | 0.4239 kPa
299.2 K | 0.4202 kPa
302.1 K | 0.5212 kPa
306.1 K | 0.6926 kPa
309 K | 0.8283 kPa and 0.7923 kPa
313 K | 1.016 kPa
317 K | 1.311 kPa
319.8 K | 1.44 kPa
322 K | 1.585 kPa
324.9 K | 1.97 kPa
